The values that follow are results of earlier work, collected in patent publication US20040259834A1, “Therapeutic composition containing at least diflomotecan and capecitabine” (priority 2003, published 2004).

Structures are written as SMILES.

The conditions of series [1]: 7-membered β-hydroxylactone ring, more stable lactone form.
In the next series the test system is various xenografts. To be noted: various xenografts growing in nude mice.

As for `CC[C@@]1(O)CC(=O)OCc2c1cc1n(c2=O)Cc2cc3cc(F)c(F)cc3nc2-1` [Diflomotecan], in series [1], the plasma stability result is “greater plasma stability”. Besides, the activity against xenografts entry with various xenografts was “excellent activity”.
